Measured values from ChEMBL document CHEMBL3826915, “Design and comparative anticonvulsant activity assessment of CNS-active alkyl-carbamoyl imidazole derivatives” (Bioorg Med Chem, 2016).
Calls of active or inactive are those of the source. No cut-off for these calls is given here.

Legend:
Mus musculus [1] = assay: Anticonvulsant activity in albino CF1 mouse assessed as protection against 32 mA current-induced seizure at 30 mg/kg, ip after 2 hrs by 6 Hz psychomotor test; type: functional, organism-based
Mus musculus [2] = assay: Neurotoxicity in albino CF1 mouse assessed as behavioral impairment at 30 mg/kg, ip after 0.5 hrs by rotorod test; type: toxicity, organism-based; conditions: in vivo
Mus musculus [3] = assay: Anticonvulsant activity in albino CF1 mouse assessed as protection against 32 mA current-induced seizure at 100 mg/kg, ip after 2 hrs by 6 Hz psychomotor test; type: functional, organism-based
Mus musculus [4] = assay: Neurotoxicity in albino CF1 mouse assessed as behavioral impairment at 30 mg/kg, ip after 2 hrs by rotorod test; type: toxicity, organism-based; conditions: in vivo
Mus musculus [5] = assay: Anticonvulsant activity in albino CF1 mouse assessed as protection against maximal electroshock-induced seizures at 100 mg/kg, ip after 0.5 hrs; type: functional, organism-based
Mus musculus [6] = assay: Anticonvulsant activity in albino CF1 mouse assessed as protection against maximal electroshock-induced seizures at 30 mg/kg, ip after 0.5 hrs; type: functional, organism-based
Mus musculus [7] = assay: Anticonvulsant activity in albino CF1 mouse assessed as protection against maximal electroshock-induced seizures at 30 mg/kg, ip after 2 hrs; type: functional, organism-based
Mus musculus [8] = assay: Anticonvulsant activity in albino CF1 mouse assessed as protection against 32 mA current-induced seizure at 30 mg/kg, ip after 0.5 hrs by 6 Hz psychomotor test; type: functional, organism-based
Mus musculus [9] = assay: Neurotoxicity in albino CF1 mouse assessed as behavioral impairment at 300 mg/kg, ip after 2 hrs by rotorod test; type: toxicity, organism-based; conditions: in vivo
Mus musculus [10] = assay: Neurotoxicity in albino CF1 mouse assessed as behavioral impairment at 100 mg/kg, ip after 2 hrs by rotorod test; type: toxicity, organism-based; conditions: in vivo
Mus musculus [11] = assay: Neurotoxicity in albino CF1 mouse assessed as behavioral impairment at 300 mg/kg, ip after 0.5 hrs by rotorod test; type: toxicity, organism-based; conditions: in vivo
Mus musculus [12] = assay: Anticonvulsant activity in ip dosed albino CF1 mouse assessed as protection against maximal electroshock-induced seizures by measuring time to peak effect; type: functional
Mus musculus [13] = assay: Anticonvulsant activity in ip dosed albino CF1 mouse assessed as protection against 6 Hz current-induced seizure by measuring time to peak effect; type: functional
Mus musculus [14] = assay: Anticonvulsant activity in ip dosed albino CF1 mouse assessed as protection against maximal electroshock-induced seizures; type: functional
Mus musculus [15] = assay: Anticonvulsant activity in ip dosed albino CF1 mouse assessed as protection against subcutaneous metrazol-induced seizures; type: functional
[16] = Protective index, ratio of TD50 for neurotoxicity in ip dosed albino CF1 mouse to ED50 for anticonvulsant activity in ip dosed maximal electroshock-induced seizure albino CF1 mouse model; type: toxicity, organism-based; conditions: in vivo, read-out: Ratio TD50/ED50
[17] = Neurotoxicity in ip dosed albino CF1 mouse assessed as motor impairment by rotorod test; type: toxicity, organism-based; conditions: in vivo
Mus musculus [18] = assay: Anticonvulsant activity in ip dosed albino CF1 mouse assessed as protection against subcutaneous metrazol-induced seizures by measuring time to peak effect; type: functional
Rattus norvegicus [19] = assay: Anticonvulsant activity in albino Sprague-Dawley rat assessed as protection against maximal electroshock-induced seizures at 30 mg/kg, po after 0.5 hrs; type: functional, organism-based
Rattus norvegicus [20] = assay: Anticonvulsant activity in albino Sprague-Dawley rat assessed as protection against maximal electroshock-induced seizures at 30 mg/kg, ip after 2 hrs; type: functional, organism-based
Rattus norvegicus [21] = assay: Anticonvulsant activity in albino Sprague-Dawley rat assessed as protection against maximal electroshock-induced seizures at 30 mg/kg, po after 2 hrs; type: functional, organism-based
Rattus norvegicus [22] = assay: Neurotoxicity in albino Sprague-Dawley rat assessed as behavioral impairment at 30 mg/kg, ip after 2 hrs by rotorod test; type: toxicity, organism-based; conditions: in vivo
Rattus norvegicus [23] = assay: Neurotoxicity in albino Sprague-Dawley rat assessed as behavioral impairment at 30 mg/kg, po after 2 hrs by rotorod test; type: toxicity, organism-based; conditions: in vivo
Rattus norvegicus [24] = assay: Neurotoxicity in albino Sprague-Dawley rat assessed as behavioral impairment at 30 mg/kg, ip after 1 hr by rotorod test; type: toxicity, organism-based; conditions: in vivo
Rattus norvegicus [25] = assay: Neurotoxicity in albino Sprague-Dawley rat assessed as behavioral impairment at 30 mg/kg, ip after 0.25 hrs by rotorod test; type: toxicity, organism-based; conditions: in vivo
Rattus norvegicus [26] = assay: Neurotoxicity in albino Sprague-Dawley rat assessed as behavioral impairment at 30 mg/kg, ip after 0.5 hrs by rotorod test; type: toxicity, organism-based; conditions: in vivo
Rattus norvegicus [27] = assay: Anticonvulsant activity in albino Sprague-Dawley rat assessed as protection against maximal electroshock-induced seizures at 30 mg/kg, po after 0.25 hrs; type: functional, organism-based
Mus musculus [28] = assay: Anticonvulsant activity in albino CF1 mouse assessed as protection against maximal electroshock-induced seizures at 300 mg/kg, ip after 0.5 hrs; type: functional, organism-based
Rattus norvegicus [29] = assay: Anticonvulsant activity in albino Sprague-Dawley rat assessed as protection against maximal electroshock-induced seizures at 30 mg/kg, ip after 1 hr; type: functional, organism-based
Mus musculus [30] = assay: Anticonvulsant activity in albino CF1 mouse assessed as protection against maximal electroshock-induced seizures at 100 mg/kg, ip after 2 hrs; type: functional, organism-based
Rattus norvegicus [31] = assay: Neurotoxicity in albino Sprague-Dawley rat assessed as behavioral impairment at 30 mg/kg, po after 0.25 hrs by rotorod test; type: toxicity, organism-based; conditions: in vivo
Rattus norvegicus [32] = assay: Neurotoxicity in albino Sprague-Dawley rat assessed as behavioral impairment at 30 mg/kg, po after 1 hr by rotorod test; type: toxicity, organism-based; conditions: in vivo
Rattus norvegicus [33] = assay: Neurotoxicity in albino Sprague-Dawley rat assessed as behavioral impairment at 30 mg/kg, po after 0.5 hrs by rotorod test; type: toxicity, organism-based; conditions: in vivo
Rattus norvegicus [34] = assay: Anticonvulsant activity in albino Sprague-Dawley rat assessed as protection against maximal electroshock-induced seizures at 30 mg/kg, po after 1 hr; type: functional, organism-based
Mus musculus [35] = assay: Anticonvulsant activity in ip dosed albino CF1 mouse assessed as protection against 6 Hz current-induced seizures by psychomotor test; type: functional
Rattus norvegicus [36] = assay: Anticonvulsant activity in albino Sprague-Dawley rat assessed as protection against maximal electroshock-induced seizures at 30 mg/kg, ip after 0.5 hrs; type: functional, organism-based
Rattus norvegicus [37] = assay: Anticonvulsant activity in albino Sprague-Dawley rat assessed as protection against maximal electroshock-induced seizures at 30 mg/kg, ip after 0.25 hrs; type: functional, organism-based
Mus musculus [38] = assay: Anticonvulsant activity in albino CF1 mouse assessed as protection against maximal electroshock-induced seizures at 300 mg/kg, ip after 2 hrs; type: functional, organism-based
[39] = Protective index, ratio of TD50 for neurotoxicity in ip dosed albino CF1 mouse to ED50 for anticonvulsant activity in ip dosed […] metrazol-induced seizure albino CF1 mouse model; type: toxicity, organism-based; conditions: in vivo, read-out: Ratio TD50/ED50
Mus musculus [40] = assay: Anticonvulsant activity in albino CF1 mouse assessed as protection against 32 mA current-induced seizure at 100 mg/kg, ip after 0.5 hrs by 6 Hz psychomotor test; type: functional, organism-based
Mus musculus [41] = assay: Anticonvulsant activity in albino CF1 mouse assessed as protection against 32 mA current-induced seizure at 300 mg/kg, ip after 2 hrs by 6 Hz psychomotor test; type: functional, organism-based
Mus musculus [42] = assay: Anticonvulsant activity in albino CF1 mouse assessed as protection against 32 mA current-induced seizure at 300 mg/kg, ip after 0.5 hrs by 6 Hz psychomotor test; type: functional, organism-based

SMILES	Activity (Mus musculus [1])	Activity (Mus musculus [2])	Activity (Mus musculus [3])	Activity (Mus musculus [4])	Activity (Mus musculus [5])	Activity (Mus musculus [6])	Activity (Mus musculus [7])	Activity (Mus musculus [8])	Activity (Mus musculus [10])	Activity (Mus musculus [11])	Activity (Rattus norvegicus [21])	Activity (Rattus norvegicus [22])	Activity (Rattus norvegicus [23])	Activity (Rattus norvegicus [24])	Activity (Rattus norvegicus [25])	Activity (Rattus norvegicus [26])	Activity (Mus musculus [30])	Activity (Rattus norvegicus [31])	Activity (Rattus norvegicus [32])	Activity (Rattus norvegicus [33])	also measured
CCCCC(CC)COC(=O)NCCCn1ccnc1 (stereo not given)	inactive	Non-toxic	inactive	Non-toxic	Active	inactive	inactive	inactive	Non-toxic	Toxic											Activity (Mus musculus [9]): Toxic
NC(=O)OCC(COC(N)=O)c1ccccc1 [FELBAMATE]																					Time (Mus musculus [12]): 0.5 h; Time (Mus musculus [13]): 0.5 h; ED50 (Mus musculus [14]): 25 mg/kg; ED50 (Mus musculus [15]): > 250 mg/kg; selectivity ratio [16]: > 20; TD50 [17]: > 500 mg/kg; Time (Mus musculus [18]): 0.5 h
CCC(C)C(C)OC(=O)NCCCn1ccnc1 (stereo not given)	inactive	Non-toxic	inactive	Non-toxic	Active	inactive	inactive	inactive	Non-toxic	Toxic	inactive	Non-toxic	Non-toxic	Non-toxic	Non-toxic	Non-toxic	Active	Non-toxic	Non-toxic	Non-toxic	Activity (Rattus norvegicus [19]): inactive; Activity (Rattus norvegicus [20]): inactive; Activity (Rattus norvegicus [27]): inactive; Activity (Mus musculus [28]): Active; Activity (Rattus norvegicus [29]): inactive
CC(C)(C)CCOC(=O)NCCCn1ccnc1	inactive	Non-toxic		Non-toxic	Active		inactive	inactive	Non-toxic	Toxic	inactive	Non-toxic	Non-toxic	Non-toxic	Non-toxic	Non-toxic	Active	Non-toxic	Non-toxic	Non-toxic	Activity (Rattus norvegicus [19]): inactive; Activity (Rattus norvegicus [20]): inactive; Activity (Rattus norvegicus [34]): inactive; Activity (Rattus norvegicus [27]): inactive; Activity (Mus musculus [9]): Toxic
O=C(NCCCn1ccnc1)OCCc1ccccc1	inactive	Non-toxic		Non-toxic	Active	Active	inactive	inactive	Non-toxic	Toxic	inactive	Non-toxic	Non-toxic	Non-toxic	Non-toxic	Non-toxic	Active	Non-toxic	Non-toxic	Non-toxic	Time (Mus musculus [12]): 0.5 h; ED50 (Mus musculus [35]): inactive; Activity (Rattus norvegicus [36]): Active; Time (Mus musculus [13]): 0.5 h; ED50 (Mus musculus [14]): 14 mg/kg; ED50 (Mus musculus [15]): > 80 mg/kg; selectivity ratio [16]: 5.5; Activity (Rattus norvegicus [37]): Active; TD50 [17]: 77 mg/kg; Activity (Mus musculus [38]): Active; Time (Mus musculus [18]): 0.5 h; Activity (Mus musculus [28]): Active; Activity (Mus musculus [9]): Toxic; selectivity ratio [39]: 0.96; Activity (Mus musculus [40]): Active
CCCC(CCC)C(=O)O [VALPROIC ACID]																					Time (Mus musculus [12]): 0.5 h; Time (Mus musculus [13]): 0.5 h; ED50 (Mus musculus [15]): 646 mg/kg; TD50 [17]: 784 mg/kg; Time (Mus musculus [18]): 0.5 h
CC(C)(C)COC(=O)NCCCn1ccnc1	inactive	Non-toxic	inactive	Non-toxic		inactive	inactive	inactive	Non-toxic		inactive	Non-toxic	Non-toxic	Non-toxic	Non-toxic	Non-toxic	Active	Non-toxic	Non-toxic	Non-toxic	Activity (Rattus norvegicus [19]): inactive; Activity (Rattus norvegicus [34]): inactive; Activity (Mus musculus [38]): Active; Activity (Mus musculus [28]): inactive; Activity (Mus musculus [41]): inactive; Activity (Mus musculus [40]): inactive; Activity (Mus musculus [42]): inactive
